Reference: paper PMC9186351, “Discovery of N-quinazolinone-4-hydroxy-2-quinolone-3-carboxamides as DNA gyrase B-targeted antibacterial agents” (Journal of Enzyme Inhibition and Medicinal Chemistry, 2022)
Converted amounts (≈) assume the structure as drawn. Where two headings read alike, the source gives them in different places.

Key:
S. aureus GyrB = target: T1, S. aureus GyrB (Staphylococcus aureus, UniProt P0A0K8); experiment: S. aureus GyrB (Gyrase ATPase) inhibition assay, ADP-Glo; assay type: biochemical
T1 construct: purchased Inspiralis Ltd., Norwich, UK
T1 sequence (P0A0K8 whole entry): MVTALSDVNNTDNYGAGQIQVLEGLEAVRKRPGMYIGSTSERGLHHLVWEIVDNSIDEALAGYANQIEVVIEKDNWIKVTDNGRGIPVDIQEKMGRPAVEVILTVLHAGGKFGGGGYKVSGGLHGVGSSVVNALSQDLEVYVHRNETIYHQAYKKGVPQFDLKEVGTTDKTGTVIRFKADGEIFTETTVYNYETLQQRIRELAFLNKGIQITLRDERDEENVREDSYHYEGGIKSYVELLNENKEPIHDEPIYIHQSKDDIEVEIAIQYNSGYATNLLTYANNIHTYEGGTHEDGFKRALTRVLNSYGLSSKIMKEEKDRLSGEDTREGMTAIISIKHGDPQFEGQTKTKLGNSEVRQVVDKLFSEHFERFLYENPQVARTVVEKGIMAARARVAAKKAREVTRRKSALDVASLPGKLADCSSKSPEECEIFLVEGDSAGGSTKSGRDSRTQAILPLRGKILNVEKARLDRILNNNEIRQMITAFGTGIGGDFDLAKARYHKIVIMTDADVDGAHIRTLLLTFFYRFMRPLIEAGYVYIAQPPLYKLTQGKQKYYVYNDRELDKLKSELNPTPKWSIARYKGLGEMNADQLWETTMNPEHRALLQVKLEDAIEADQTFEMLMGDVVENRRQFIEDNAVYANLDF
T1 sequence (P20831 whole entry, further chain): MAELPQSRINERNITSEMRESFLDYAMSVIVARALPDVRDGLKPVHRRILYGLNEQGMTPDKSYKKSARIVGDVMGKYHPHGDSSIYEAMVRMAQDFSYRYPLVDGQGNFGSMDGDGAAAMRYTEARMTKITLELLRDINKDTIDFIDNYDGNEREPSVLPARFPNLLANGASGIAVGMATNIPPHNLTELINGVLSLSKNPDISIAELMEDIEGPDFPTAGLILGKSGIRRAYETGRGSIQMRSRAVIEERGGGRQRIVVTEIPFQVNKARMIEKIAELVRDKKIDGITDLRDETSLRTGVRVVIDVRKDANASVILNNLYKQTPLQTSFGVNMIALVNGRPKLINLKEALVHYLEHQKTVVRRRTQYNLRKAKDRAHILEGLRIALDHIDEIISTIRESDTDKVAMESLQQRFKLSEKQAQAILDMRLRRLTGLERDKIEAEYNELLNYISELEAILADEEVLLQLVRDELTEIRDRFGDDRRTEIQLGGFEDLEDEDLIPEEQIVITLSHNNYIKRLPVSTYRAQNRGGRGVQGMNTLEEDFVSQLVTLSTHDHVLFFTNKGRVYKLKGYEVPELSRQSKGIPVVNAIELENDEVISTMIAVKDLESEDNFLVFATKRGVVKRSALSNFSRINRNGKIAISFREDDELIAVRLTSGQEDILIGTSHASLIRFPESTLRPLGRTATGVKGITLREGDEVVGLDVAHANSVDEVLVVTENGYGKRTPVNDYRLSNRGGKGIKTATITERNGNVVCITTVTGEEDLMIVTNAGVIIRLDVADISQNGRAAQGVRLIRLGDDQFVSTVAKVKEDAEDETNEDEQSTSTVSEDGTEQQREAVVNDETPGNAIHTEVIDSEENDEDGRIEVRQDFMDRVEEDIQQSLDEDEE
Procedure: The IC50 values for S. aureus GyrB were determined according to our previously reported protocol.[16] For this assay, the reaction mixture (10 μL) consisted of 5 nM S. aureus Gyrase (Inspiralis Ltd., Norwich, UK), assay buffer [40 mM HEPES-KOH (pH 7.6), 10 mM magnesium acetate, 10 mM dithiothreitol, 50 g/L BSA, and 500 mM potassium glutamate], the test compound (0.01–100 μM), 1% DMSO, 10 nM linear pBR322 DNA, and […]. The target compound was dissolved in DMSO (10 mM). A series of dilutions (0.1–1000 μM) were prepared from the stock solution with the assay buffer and DMSO. The dilutions (1 μL) were respectively added to the PCR tubes along with the buffer (7 μL), the linear pBR322 DNA (0.5 μL), S. aureus Gyrase (0.5 μL), and ATP (1 μL). The PCR tubes were sealed and incubated at 37 °C for 30 min. The ADP-Glo reagent (40 μL) was added to stop the reaction and use up the remaining ATP.
The detection reagent (50 μL) was then added and mixed. After 5 min, the mixture in each PCR tube was put in the well of a 96-well plate and its luminescence was measured by the BioTek Synergy 2 microplate reader. The activity values (%) of S. aureus Gyrase treated by the test compound at different concentrations were determined based on the luminescence. GraphPad Prism version 5 software (GraphPad Software Inc., La Jolla, CA) was used to calculate the IC50 values.

[1] = tested on: methicillin-resistant S. aureus (MRSA); experiment: MIC by broth microdilution, MRSA strains; assay type: cell-based; details: Staphylococcus aureus
Procedure: (§1) All of the bacterial strains used in this study were obtained from the Collection Centre of Pathogen Microorganism of Chinese Academy of Medical Sciences (CAMS-CCPM-A) in China. All of the isolates were stored at −80 °C and streaked on tryptic soy agar (TSA) plates to obtain overnight cultures. The MICs of the test compounds were determined by the broth microdilution method in accordance with the Clinical and Laboratory Standards Institute (CLSI) guidelines.[20] Cation-adjusted Mueller-Hinton broth (CAMHB) was used as the growth medium for MIC assays. Briefly, 100 μL of serially diluted compounds (starting concentrations were 64 μg/mL) in CAMH broth were added to the wells of 96-well microtiter plates. Then, 10 µL of 5 × 10^6 CFU/mL bacterial culture was added to each well. […] The MIC was defined as the lowest concentration of a compound that inhibited visual growth of the bacteria. Vancomycin was set as the positive control for this assay.

[2] = tested on: vancomycin intermediate resistant S. aureus (VISA); experiment: MIC by broth microdilution, VISA strains; assay type: cell-based; details: Staphylococcus aureus, read-out: MIC
Procedure: as §1

MRSA/VISA strains = experiment: MIC by broth microdilution, MRSA and VISA panel; assay type: cell-based, S. aureus; details: Staphylococcus aureus
Procedure: as §1

[3] = Cytotoxicity, SRB assay, HepG2; assay type: cell-based, human; details: human, HepG2 cells, 72-h treatment (footnote), read-out: In vitro cytotoxicity CC50 (μM, mean ± SD)
Procedure: (§2) Cytotoxicity in terms of CC50 was determined by the SRB assay according to the protocol described in our previous publication.[16] Briefly, human HUVECs or HepG2 cells were seeded in the wells of 96-well plates at a concentration of 1 × 10^5 cells per well and incubated at 37 °C for 24 h. […] The cells were fixed with 10% trichloroacetic acid (w/v) at 4 °C for 1 h, washed five times with distilled water, and stained with 0.4% SRB solution at room temperature for another 20 min. The cells were then washed five times with 1% acetic acid and air-dried. The protein-bound dye was dissolved in 10 mM Tris-base solution and shaken for 5 min. The optical density (OD) was measured at 540 nm using a microplate reader to estimate the cell viability (%). With the viability values (%) of the cells treated by the compound at different concentrations as input, the CC50 value was determined by the non-linear regression with normalised dose-response fit implemented in GraphPad Prism version 5 software (GraphPad Software Inc., La Jolla, CA). The experiment was performed in duplicate, and paclitaxel was used as the positive drug for this assay.

HepG2 cells = experiment: Cytotoxicity, SRB assay, HepG2; assay type: cell-based, human; details: 72-h treatment (footnote), read-out: In vitro cytotoxicity CC50 (μM, mean ± SD)
Procedure: as §2

[4] = Cytotoxicity, SRB assay, HUVEC; assay type: cell-based, human; details: human, HUVEC cells, 72-h treatment (footnote), read-out: In vitro cytotoxicity CC50 (μM, mean ± SD)
Procedure: as §2

HUVECs = experiment: Cytotoxicity, SRB assay, HUVEC; assay type: cell-based, human; details: 72-h treatment (footnote), read-out: In vitro cytotoxicity CC50 (μM, mean ± SD)
Procedure: as §2

in vitro = in vitro ADME, mouse; details: mouse, plasma
Procedure: The mouse plasma was purchased from Charles River and stored at −20 °C. The stock solution of the test compound dissolved in DMSO (50 mM) was prepared and diluted to obtain a working solution at the concentration of 0.2 mM. The working solution of the control compound, i.e. propantheline, was similarly prepared (0.2 mM). Terfenadine (5 ng/mL) and tolbutamide (10 ng/mL) dissolved in acetonitrile were used as two quenching solutions.
The mouse plasma was pre-warmed at 37 °C for 15 min. The working solution of the test/control compound (2 µL) was then added to the mouse plasma (398 µL) in a 96-well plate. Next, 30 µL of the reaction mixture was sampled and moved to 300 µL of quenching solutions at each time point: 0, 5, 15, 30, 60, and 120 min for the control compound and 0, 15, 30, 60, and 120 min for the test compound. When the sampling was done, each sample was centrifuged at 4000 rpm at 4 °C for 15 min. Then, 100 µL of the supernatant was removed and mixed with 100 µL of distilled water for LC-MS/MS analysis with Shimadzu HPLC system and the AB Sciex API 4000 QTRAP instrument. The remaining compound (%) after incubation in plasma versus the incubation time was plotted. The half-life (t1/2) value of the compound was determined via linear regression from the plot.

SMILES: CCCCCc1nc2ccccc2c(=O)n1NC(=O)c1c(O)c2ccccc2n(CC)c1=O [f1, N-(4-oxo-2-pentylquinazolin-3(4H)-yl)-1-ethyl-4-hydroxy-2-oxo-1,2-dihydroquinoline-3-carboxamide]
- IC50 (S. aureus GyrB; IC50 for GyrB (µM, mean ± SD), S. aureus Gyrase ATPase inhibition, average of duplicates): 1.21 ± 0.13 µM
- inhibition at 10 µM (S. aureus GyrB; read-out: GyrB inhibition rate (%) at 10 μM): 72%
- MIC ([1]; ATCC 33591 / MRSA, MRSA ATCC 33591, read-out: MIC): 4 µg/mL (≈ 8.96 µM)
- MIC ([1]; ATCC 43300 / MRSA, MRSA ATCC 43300, read-out: MIC): 4 µg/mL (≈ 8.96 µM)
- MIC ([1]; MRSA 18-2, read-out: MIC): 8 µg/mL (≈ 17.9 µM)
- MIC ([1]; span over MRSA strains, read-out: MICs against MRSA): 4 to 8 µg/mL (≈ 8.96 to 17.9 µM)
- MIC ([2]; ATCC 700699 / VISA, VISA ATCC 700699): 8 µg/mL (≈ 17.9 µM)
- MIC ([2]; VISA, VISA HIP 5827): 4 µg/mL (≈ 8.96 µM)
- MIC ([2]; VISA, VISA HIP 5836): 16 µg/mL (≈ 35.8 µM)
- MIC (MRSA/VISA strains; ATCC 33591 / ATCC 43300 / ATCC 700699 / MRSA / VISA, span over ATCC 33591, ATCC 43300, 18-2, ATCC 700699, HIP 5836, HIP 5827, read-out: MICs for MRSA and VISA strains): 4 to 16 µg/mL
- MIC (MRSA/VISA strains; span over tested MRSA/VISA strains, read-out: MICs for MRSA/VISA strains converted to): 8.97 to 35.9 µM
- CC50 at 72 h [3]: ~50 µM
- CC50 (HepG2 cells): 49.6 ± 0.2 µM
- CC50 at 72 h [4]: ~50 µM
- CC50 (HUVECs): 51.5 ± 4.5 µM
- half-life at 1 µM (in vitro): > 6.21 h
